Data reported in the kinase profiling compilation of Christmann-Franck et al. (2016).

Tests used:
MAPK9 (human) = MAPK9 (human) (UniProt P45984)
PHKG1 (human) = PHKG1 (human) (UniProt Q16816)
MELK (human) = MELK (human) (UniProt Q14680)
MAPK15 (human) = MAPK15 (human) (UniProt Q8TD08)
TBK1 (human) = TBK1 (human) (UniProt Q9UHD2)
SRPK1 (human) = SRPK1 (human) (UniProt Q96SB4)
SYK (human) = SYK (human) (UniProt P43405)
MAPKAPK2 (human) = MAPKAPK2 (human) (UniProt P49137)
EEF2K (human) = EEF2K (human) (UniProt O00418)
Sequence of EEF2K (human) (O00418 whole entry, looked up): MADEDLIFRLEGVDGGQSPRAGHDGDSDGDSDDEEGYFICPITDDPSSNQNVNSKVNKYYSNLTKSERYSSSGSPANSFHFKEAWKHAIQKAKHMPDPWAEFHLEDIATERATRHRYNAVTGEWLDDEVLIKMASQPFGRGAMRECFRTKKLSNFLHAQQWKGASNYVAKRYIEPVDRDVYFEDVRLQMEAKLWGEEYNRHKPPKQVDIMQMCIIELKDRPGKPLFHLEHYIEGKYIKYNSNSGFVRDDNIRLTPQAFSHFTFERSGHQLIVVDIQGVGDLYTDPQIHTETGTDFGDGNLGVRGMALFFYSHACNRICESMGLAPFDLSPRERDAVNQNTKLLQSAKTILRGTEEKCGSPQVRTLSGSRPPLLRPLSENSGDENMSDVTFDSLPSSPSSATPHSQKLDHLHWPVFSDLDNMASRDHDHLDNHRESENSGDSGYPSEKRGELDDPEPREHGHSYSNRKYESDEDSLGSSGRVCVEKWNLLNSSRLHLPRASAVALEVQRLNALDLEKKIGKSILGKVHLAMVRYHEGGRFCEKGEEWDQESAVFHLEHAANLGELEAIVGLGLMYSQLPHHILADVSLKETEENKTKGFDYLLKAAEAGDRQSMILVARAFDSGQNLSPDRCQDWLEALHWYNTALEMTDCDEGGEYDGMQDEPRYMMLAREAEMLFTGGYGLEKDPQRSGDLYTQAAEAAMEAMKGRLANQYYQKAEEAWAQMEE

PLK1 (human) = PLK1 (human) (UniProt P53350)
RPS6KA5 KD1 KD2 (human) = RPS6KA5 KD1 KD2 (human) (UniProt O75582)
STK3 (human) = STK3 (human) (UniProt Q13188)
Sequence of STK3 (human) (Q13188 whole entry, looked up): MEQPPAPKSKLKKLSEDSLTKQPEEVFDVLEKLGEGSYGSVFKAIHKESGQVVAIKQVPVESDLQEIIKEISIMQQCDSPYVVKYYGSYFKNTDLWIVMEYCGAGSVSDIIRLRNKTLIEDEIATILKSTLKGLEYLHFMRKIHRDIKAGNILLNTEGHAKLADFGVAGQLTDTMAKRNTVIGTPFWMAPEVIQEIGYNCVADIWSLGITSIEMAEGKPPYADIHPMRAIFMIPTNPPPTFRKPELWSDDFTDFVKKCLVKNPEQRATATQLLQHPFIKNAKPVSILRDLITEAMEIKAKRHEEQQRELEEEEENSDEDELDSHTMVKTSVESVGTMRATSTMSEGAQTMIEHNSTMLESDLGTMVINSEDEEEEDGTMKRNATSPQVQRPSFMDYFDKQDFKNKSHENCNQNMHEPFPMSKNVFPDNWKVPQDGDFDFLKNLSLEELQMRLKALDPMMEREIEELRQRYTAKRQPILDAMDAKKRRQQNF

NEK2 (human) = NEK2 (human) (UniProt P51955)
DYRK3 (human) = DYRK3 (human) (UniProt O43781)
MARK3 (human) = MARK3 (human) (UniProt P27448)
Sequence of MARK3 (human) (P27448 whole entry, looked up): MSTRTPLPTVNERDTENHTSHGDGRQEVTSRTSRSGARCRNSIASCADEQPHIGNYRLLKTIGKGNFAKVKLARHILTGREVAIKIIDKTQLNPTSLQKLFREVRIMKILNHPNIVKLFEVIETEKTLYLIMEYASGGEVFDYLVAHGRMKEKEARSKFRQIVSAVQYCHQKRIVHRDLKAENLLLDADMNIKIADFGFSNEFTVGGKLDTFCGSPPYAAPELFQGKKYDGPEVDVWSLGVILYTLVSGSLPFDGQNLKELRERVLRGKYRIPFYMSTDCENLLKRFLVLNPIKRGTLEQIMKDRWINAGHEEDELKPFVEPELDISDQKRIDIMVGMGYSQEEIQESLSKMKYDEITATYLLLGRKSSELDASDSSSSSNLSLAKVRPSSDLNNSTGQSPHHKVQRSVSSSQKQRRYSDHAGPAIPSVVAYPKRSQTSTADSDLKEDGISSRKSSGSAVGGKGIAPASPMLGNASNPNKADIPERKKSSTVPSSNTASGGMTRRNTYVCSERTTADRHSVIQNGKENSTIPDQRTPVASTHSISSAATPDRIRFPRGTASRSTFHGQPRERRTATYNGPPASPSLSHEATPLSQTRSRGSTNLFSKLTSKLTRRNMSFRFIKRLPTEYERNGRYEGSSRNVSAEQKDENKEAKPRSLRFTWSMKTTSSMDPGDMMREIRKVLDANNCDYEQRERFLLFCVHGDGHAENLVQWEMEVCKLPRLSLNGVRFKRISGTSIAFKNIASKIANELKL

PAK6 (human) = PAK6 (human) (UniProt Q9NQU5)
Sequence of PAK6 (human) (Q9NQU5 whole entry, looked up): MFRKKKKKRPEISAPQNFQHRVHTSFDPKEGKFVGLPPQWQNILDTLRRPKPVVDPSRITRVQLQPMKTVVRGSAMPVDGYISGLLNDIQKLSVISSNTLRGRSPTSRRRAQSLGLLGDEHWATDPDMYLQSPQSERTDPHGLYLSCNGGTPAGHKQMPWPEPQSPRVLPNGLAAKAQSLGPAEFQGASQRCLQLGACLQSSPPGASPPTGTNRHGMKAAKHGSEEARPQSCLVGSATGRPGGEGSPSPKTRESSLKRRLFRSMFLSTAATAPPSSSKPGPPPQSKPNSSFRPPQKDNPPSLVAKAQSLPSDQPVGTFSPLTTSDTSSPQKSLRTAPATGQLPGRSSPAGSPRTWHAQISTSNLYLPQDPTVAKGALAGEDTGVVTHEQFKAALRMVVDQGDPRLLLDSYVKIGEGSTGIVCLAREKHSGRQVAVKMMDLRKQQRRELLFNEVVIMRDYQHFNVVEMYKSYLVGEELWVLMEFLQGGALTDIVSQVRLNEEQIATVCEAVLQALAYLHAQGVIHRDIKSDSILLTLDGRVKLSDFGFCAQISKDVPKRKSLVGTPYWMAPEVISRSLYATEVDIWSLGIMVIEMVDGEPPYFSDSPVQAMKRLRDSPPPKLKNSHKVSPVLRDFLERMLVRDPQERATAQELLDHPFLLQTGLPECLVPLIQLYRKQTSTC

PAK7 (human) = PAK7 (human) (UniProt Q9P286)
[1] = system: RPS6KB1 (human), P23443 [T412E]
CAMKK2 (human) = CAMKK2 (human) (UniProt Q96RR4)
CHEK1 (human) = CHEK1 (human) (UniProt O14757)
EPHB3 (human) = EPHB3 (human) (UniProt P54753)
Sequence of EPHB3 (human) (P54753 whole entry, looked up): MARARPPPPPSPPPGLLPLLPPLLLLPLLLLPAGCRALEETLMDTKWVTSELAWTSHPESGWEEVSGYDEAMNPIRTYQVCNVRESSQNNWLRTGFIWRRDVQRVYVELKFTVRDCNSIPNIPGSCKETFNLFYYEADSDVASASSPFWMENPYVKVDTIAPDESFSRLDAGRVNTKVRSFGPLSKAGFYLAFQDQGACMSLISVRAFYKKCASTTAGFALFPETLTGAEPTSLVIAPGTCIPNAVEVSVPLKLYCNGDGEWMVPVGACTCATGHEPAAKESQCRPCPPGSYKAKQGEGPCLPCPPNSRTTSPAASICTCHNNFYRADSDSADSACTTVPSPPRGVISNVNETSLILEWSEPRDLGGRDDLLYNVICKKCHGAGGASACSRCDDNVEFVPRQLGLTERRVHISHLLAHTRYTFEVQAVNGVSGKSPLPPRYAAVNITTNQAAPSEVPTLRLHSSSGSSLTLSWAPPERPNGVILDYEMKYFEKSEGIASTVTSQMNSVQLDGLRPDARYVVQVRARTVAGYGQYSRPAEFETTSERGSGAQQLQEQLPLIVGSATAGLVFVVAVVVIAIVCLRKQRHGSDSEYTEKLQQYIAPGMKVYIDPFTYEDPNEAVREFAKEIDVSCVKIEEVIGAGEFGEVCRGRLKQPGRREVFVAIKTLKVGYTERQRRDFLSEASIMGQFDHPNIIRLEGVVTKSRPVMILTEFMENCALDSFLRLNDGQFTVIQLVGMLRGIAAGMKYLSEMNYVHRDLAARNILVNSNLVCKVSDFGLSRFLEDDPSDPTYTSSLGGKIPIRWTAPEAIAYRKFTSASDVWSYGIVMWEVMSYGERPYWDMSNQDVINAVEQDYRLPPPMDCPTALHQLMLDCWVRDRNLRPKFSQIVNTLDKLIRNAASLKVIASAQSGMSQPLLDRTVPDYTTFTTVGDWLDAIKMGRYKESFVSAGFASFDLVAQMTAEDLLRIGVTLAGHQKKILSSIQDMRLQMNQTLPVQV

MKNK1 (human) = MKNK1 (human) (UniProt Q9BUB5)
PRKACA (human) = PRKACA (human) (UniProt P17612)
MAPK12 (human) = MAPK12 (human) (UniProt P53778)
Sequence of MAPK12 (human) (P53778 whole entry, looked up): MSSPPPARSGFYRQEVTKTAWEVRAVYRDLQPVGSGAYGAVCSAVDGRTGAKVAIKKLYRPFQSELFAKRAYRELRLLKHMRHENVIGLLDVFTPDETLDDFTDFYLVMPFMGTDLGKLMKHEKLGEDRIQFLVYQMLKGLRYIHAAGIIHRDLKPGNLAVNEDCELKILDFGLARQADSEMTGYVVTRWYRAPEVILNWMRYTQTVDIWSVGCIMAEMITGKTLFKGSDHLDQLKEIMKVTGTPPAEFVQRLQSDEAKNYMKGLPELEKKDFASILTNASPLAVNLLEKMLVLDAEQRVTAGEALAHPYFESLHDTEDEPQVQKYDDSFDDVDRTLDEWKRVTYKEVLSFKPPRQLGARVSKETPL

PRKCZ (human) = PRKCZ (human) (UniProt Q05513)
PIM2 (human) = PIM2 (human) (UniProt Q9P1W9)
PIM3 (human) = PIM3 (human) (UniProt Q86V86)
CDK2 CCNA2 (human) = CDK2 CCNA2 (human) (UniProt P20248+P24941)
SRC (human) = SRC (human) (UniProt P12931); settings: compound 10.0 µM
IGF1R (human) = IGF1R (human) (UniProt P08069)
CSNK1D (human) = CSNK1D (human) (UniProt P48730)
IKBKE (human) = IKBKE (human) (UniProt Q14164)
GSK3B (human) = GSK3B (human) (UniProt P49841)
Sequence of GSK3B (human) (P49841 whole entry, looked up): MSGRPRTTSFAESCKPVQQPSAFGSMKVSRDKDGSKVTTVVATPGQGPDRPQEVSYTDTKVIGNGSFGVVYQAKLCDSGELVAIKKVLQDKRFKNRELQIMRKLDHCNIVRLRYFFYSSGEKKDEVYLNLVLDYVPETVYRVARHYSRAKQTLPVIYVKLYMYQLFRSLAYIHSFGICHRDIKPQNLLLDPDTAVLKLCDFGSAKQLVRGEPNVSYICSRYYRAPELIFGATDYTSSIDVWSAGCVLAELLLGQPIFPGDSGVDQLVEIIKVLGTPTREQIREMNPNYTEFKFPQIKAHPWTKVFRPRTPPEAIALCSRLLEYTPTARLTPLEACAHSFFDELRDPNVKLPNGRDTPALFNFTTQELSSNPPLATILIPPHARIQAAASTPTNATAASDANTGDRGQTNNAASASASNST

ROCK2 (rat) = settings: accession and sequence are those of the human protein

Sequence of MAPK9 (human) (P45984 whole entry, looked up): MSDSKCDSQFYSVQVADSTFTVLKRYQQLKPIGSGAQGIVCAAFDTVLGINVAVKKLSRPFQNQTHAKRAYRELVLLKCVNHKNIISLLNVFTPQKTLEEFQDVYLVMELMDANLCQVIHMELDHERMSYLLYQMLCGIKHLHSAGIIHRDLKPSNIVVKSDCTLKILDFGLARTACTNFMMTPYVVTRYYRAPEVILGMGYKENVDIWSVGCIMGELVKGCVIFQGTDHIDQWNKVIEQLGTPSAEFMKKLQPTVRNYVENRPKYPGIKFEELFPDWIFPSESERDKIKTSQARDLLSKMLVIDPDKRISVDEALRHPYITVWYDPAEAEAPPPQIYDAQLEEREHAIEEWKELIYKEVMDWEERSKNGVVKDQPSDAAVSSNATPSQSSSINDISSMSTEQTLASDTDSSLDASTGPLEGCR

Structure (SMILES): COc1ccc(-c2ccc3c(N4CCOCC4)nc(N4C[C@@H](C)O[C@@H](C)C4)nc3n2)cc1CO
- per cent of control (MAPK9 (human); compound 1.0 µM): 101%
- per cent of control (MAPK9 (human); compound 10.0 µM): 103%
- per cent of control (PHKG1 (human); compound 1.0 µM): 89%
- per cent of control (PHKG1 (human); compound 10.0 µM): 116%
- per cent of control (MELK (human); compound 1.0 µM): 91%
- per cent of control (MELK (human); compound 10.0 µM): 72%
- per cent of control (MAPK15 (human); compound 1.0 µM): 88%
- per cent of control (MAPK15 (human); compound 10.0 µM): 92%
- per cent of control (TBK1 (human); compound 1.0 µM): 97%
- per cent of control (TBK1 (human); compound 10.0 µM): 89%
- per cent of control (SRPK1 (human); compound 1.0 µM): 101%
- per cent of control (SRPK1 (human); compound 10.0 µM): 94%
- per cent of control (SYK (human); compound 1.0 µM): 88%
- per cent of control (SYK (human); compound 10.0 µM): 83%
- per cent of control (MAPKAPK2 (human); compound 1.0 µM): 98%
- per cent of control (MAPKAPK2 (human); compound 10.0 µM): 81%
- per cent of control (EEF2K (human); compound 1.0 µM): 88%
- per cent of control (EEF2K (human); compound 10.0 µM): 108%
- per cent of control (PLK1 (human); compound 1.0 µM): 76%
- per cent of control (PLK1 (human); compound 10.0 µM): 94%
- per cent of control (RPS6KA5 KD1 KD2 (human); compound 1.0 µM): 101%
- per cent of control (RPS6KA5 KD1 KD2 (human); compound 10.0 µM): 117%
- per cent of control (STK3 (human); compound 1.0 µM): 81%
- per cent of control (STK3 (human); compound 10.0 µM): 102%
- per cent of control (NEK2 (human); compound 1.0 µM): 92%
- per cent of control (NEK2 (human); compound 10.0 µM): 86%
- per cent of control (DYRK3 (human); compound 1.0 µM): 88%
- per cent of control (DYRK3 (human); compound 10.0 µM): 84%
- per cent of control (MARK3 (human); compound 1.0 µM): 93%
- per cent of control (MARK3 (human); compound 10.0 µM): 93%
- per cent of control (PAK6 (human); compound 1.0 µM): 75%
- per cent of control (PAK6 (human); compound 10.0 µM): 100%
- per cent of control (PAK7 (human); compound 1.0 µM): 101%
- per cent of control (PAK7 (human); compound 10.0 µM): 81%
- per cent of control ([1]; compound 1.0 µM): 104%
- per cent of control ([1]; compound 10.0 µM): 98%
- per cent of control (CAMKK2 (human); compound 1.0 µM): 108%
- per cent of control (CAMKK2 (human); compound 10.0 µM): 94%
- per cent of control (CHEK1 (human); compound 1.0 µM): 87%
- per cent of control (CHEK1 (human); compound 10.0 µM): 86%
- per cent of control (EPHB3 (human); compound 1.0 µM): 100%
- per cent of control (EPHB3 (human); compound 10.0 µM): 78%
- per cent of control (MKNK1 (human); compound 1.0 µM): 111%
- per cent of control (MKNK1 (human); compound 10.0 µM): 75%
- per cent of control (PRKACA (human); compound 1.0 µM): 115%
- per cent of control (PRKACA (human); compound 10.0 µM): 85%
- per cent of control (MAPK12 (human); compound 1.0 µM): 89%
- per cent of control (MAPK12 (human); compound 10.0 µM): 91%
- per cent of control (PRKCZ (human); compound 1.0 µM): 87%
- per cent of control (PRKCZ (human); compound 10.0 µM): 84%
- per cent of control (PIM2 (human); compound 1.0 µM): 86%
- per cent of control (PIM2 (human); compound 10.0 µM): 78%
- per cent of control (PIM3 (human); compound 1.0 µM): 114%
- per cent of control (PIM3 (human); compound 10.0 µM): 75%
- per cent of control (CDK2 CCNA2 (human); compound 1.0 µM): 89%
- per cent of control (CDK2 CCNA2 (human); compound 10.0 µM): 90%
- per cent of control (SRC (human)): 86%
- per cent of control (IGF1R (human); compound 1.0 µM): 117%
- per cent of control (IGF1R (human); compound 10.0 µM): 89%
- per cent of control (CSNK1D (human); compound 1.0 µM): 112%
- per cent of control (CSNK1D (human); compound 10.0 µM): 109%
- per cent of control (IKBKE (human); compound 1.0 µM): 99%
- per cent of control (IKBKE (human); compound 10.0 µM): 100%
- per cent of control (GSK3B (human); compound 1.0 µM): 95%
- per cent of control (GSK3B (human); compound 10.0 µM): 91%
- per cent of control (ROCK2 (rat); compound 1.0 µM): 75%
- per cent of control (ROCK2 (rat); compound 10.0 µM): 86%
